Measurements reported in ChEMBL document CHEMBL1201862, “PubChem BioAssay data set” (2004).
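Dose response: 5 concentrations. Exposure: 48 h. Format: 96-well plates. Endpoint: linear interpolation; highest concentration if not reached. The concentration for 50% growth inhibition is given as GI50.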 The source made the active and inactive calls. Cut-off read from the data, not from the text of the source: active = GI50 up to about 1.1 µM and inactive = higher.

Key:
Experiment in all cases: inhibition of tumour cell growth, NCI panel, 48 h
[1] = tested on: SK-MEL-5
[2] = tested on: SF-539
[3] = tested on: OVCAR-8
[4] = tested on: LOX IMVI
[5] = tested on: TK-10
[6] = tested on: NCI/ADR-RES
[7] = tested on: T47D
[8] = tested on: Malme-3M
[9] = tested on: NCI-H226
[10] = tested on: HT-29
[11] = tested on: MDA-N
[12] = tested on: NCI-H23
[13] = tested on: 786-0
[14] = tested on: SF-295
[15] = tested on: OVCAR-5
[16] = tested on: KM12
[17] = tested on: SN12C
[18] = tested on: NCI-H522
[19] = tested on: BT-549
[20] = tested on: K562
[21] = tested on: SK-MEL-28
[22] = tested on: M14
[23] = tested on: SNB-75
[24] = tested on: CCRF-CEM
[25] = tested on: HCT-116
[26] = tested on: SK-OV-3
[27] = tested on: RXF 393
[28] = tested on: SF-268
[29] = tested on: UACC-257
[30] = tested on: A549
[31] = tested on: UACC-62
[32] = tested on: U-251
[33] = tested on: SK-MEL-2
[34] = tested on: HL-60
[35] = tested on: OVCAR-4
[36] = tested on: ACHN
[37] = tested on: OVCAR-3
[38] = tested on: MDA-MB-231
[39] = tested on: PC-3
[40] = tested on: HOP-62
[41] = tested on: DU-145
[42] = tested on: RPMI-8226
[43] = tested on: MCF7
[44] = tested on: SW-620
[45] = tested on: Hs-578T
[46] = tested on: SNB-19
[47] = tested on: SR
[48] = tested on: HOP-92
[49] = tested on: HCT-15
[50] = tested on: UO-31
[51] = tested on: MOLT-4
[52] = tested on: A498
[53] = tested on: CAKI-1
[54] = tested on: MDA-MB-435
[55] = tested on: EKVX
[56] = tested on: COLO 205
[57] = tested on: IGROV-1
[58] = tested on: HCC 2998
[59] = tested on: NCI-H460
[60] = tested on: DMS-114
[61] = tested on: KM-20L2
[62] = tested on: DMS-273
[63] = tested on: SNB-78

Measured: GI50

C=CCNC1=C2C[C@@H](C)C[C@@H](OC)[C@@H](OC(=O)CCCN)[C@H](C)/C=C(\C)[C@@H](OC(N)=O)[C@H](OC)/C=C\C=C(/C)C(=O)NC(=CC1=O)C2=O
inactive: [1] 8.39 µM | [2] 12.6 µM | [3] 19.4 µM | [4] 5.45 µM | [5] 16.7 µM | [6] > 100 µM | [7] 27.4 µM | [8] 11.4 µM | [9] 17.1 µM | [10] 5.37 µM | [11] 12.6 µM | [12] 13.9 µM | [13] 17.1 µM | [14] 15.9 µM | [15] 16 µM | [16] 4.14 µM | [17] 17.4 µM | [18] 6.82 µM | [19] 8.99 µM | [20] 9.16 µM | [21] 16.3 µM | [22] 9.38 µM | [23] 10.4 µM | [24] 10.6 µM | [25] 15.7 µM | [26] 14.6 µM | [27] 20 µM | [28] 13.2 µM | [29] 15.1 µM | [30] 15.7 µM | [31] 15.2 µM | [32] 9.44 µM | [33] 15.9 µM | [34] 4.43 µM | [35] 20.6 µM | [36] 18.8 µM | [37] 16.7 µM | [38] 15 µM | [39] 14 µM | [40] 6.24 µM | [41] 13.8 µM | [42] 14.3 µM | [43] 6.98 µM | [44] 19.7 µM | [45] 20.9 µM | [46] 15.8 µM | [47] 6.59 µM | [48] 14.7 µM | [50] 18.4 µM | [51] 14 µM | [52] 20.5 µM | [53] 19.8 µM | [54] 20.3 µM | [55] 18.7 µM | [56] 3.54 µM | [57] 13.5 µM | [58] 15.5 µM | [59] 14.9 µM
19.4 µM: [49]

Cn1ccnc1Sc1ccc(/C=N/c2ccc3nc(SCC(=O)NC4CCCCC4)sc3c2)cc1[N+](=O)[O-]
> 100 µM: [49]
inactive: [1] > 100 µM | [2] 5.68 µM | [3] > 100 µM | [4] 95.1 µM | [5] 15.6 µM | [6] > 100 µM | [7] > 100 µM | [8] > 100 µM | [9] > 100 µM | [10] > 100 µM | [11] > 100 µM | [12] 37.5 µM | [13] 11.6 µM | [14] 13.2 µM | [15] > 100 µM | [16] > 100 µM | [17] > 100 µM | [18] 65.9 µM | [19] 14.1 µM | [20] > 100 µM | [21] > 100 µM | [22] 38.2 µM | [23] 2.7 µM | [24] > 100 µM | [25] 25.9 µM | [26] 20.2 µM | [27] 7.45 µM | [28] 22.6 µM | [29] > 100 µM | [30] > 100 µM | [31] 19.5 µM | [32] 8.09 µM | [33] 18.6 µM | [34] > 100 µM | [35] > 100 µM | [36] 16.6 µM | [37] 91.6 µM | [38] 31.4 µM | [39] > 100 µM | [40] 28.4 µM | [41] > 100 µM | [42] > 100 µM | [43] > 100 µM | [44] > 100 µM | [45] 18.6 µM | [46] 13.7 µM | [47] > 100 µM | [48] 12.1 µM | [50] > 100 µM | [51] > 100 µM | [52] 14.6 µM | [53] > 100 µM | [54] > 100 µM | [55] > 100 µM | [56] > 100 µM | [57] 37.1 µM | [58] > 100 µM | [59] > 100 µM

COc1ccc(C(c2c[nH]c3ccc(Br)cc23)c2c[nH]c3ccc(Br)cc23)cc1
active: [1] 0.359 µM | [2] 0.51 µM | [3] 0.22 µM | [4] 0.137 µM | [5] 0.993 µM | [6] 0.357 µM | [7] 0.446 µM | [8] 0.811 µM | [9] 0.938 µM | [10] 0.294 µM | [11] 0.208 µM | [12] 0.367 µM | [13] 0.215 µM | [14] 0.313 µM | [15] 0.385 µM | [16] 0.197 µM | [17] 0.31 µM | [18] 0.173 µM | [20] 0.167 µM | [21] 0.303 µM | [22] 0.237 µM | [23] 0.352 µM | [24] 0.138 µM | [25] 0.149 µM | [27] 0.278 µM | [28] 0.33 µM | [29] 0.29 µM | [30] 0.346 µM | [31] 0.218 µM | [32] 0.22 µM | [33] 0.366 µM | [34] 0.0828 µM | [35] 0.267 µM | [36] 0.24 µM | [37] 0.217 µM | [38] 0.242 µM | [39] 0.284 µM | [40] 0.411 µM | [41] 0.364 µM | [42] 0.175 µM | [43] 0.21 µM | [44] 0.29 µM | [45] 0.575 µM | [46] 0.509 µM | [47] 0.151 µM | [48] 0.213 µM | [50] 0.394 µM | [51] 0.142 µM | [52] 1.04 µM | [53] 0.382 µM | [54] 0.172 µM | [55] 0.38 µM | [56] 0.17 µM | [57] 0.264 µM | [58] 0.181 µM | [59] 0.228 µM
inactive: [19] 1.51 µM | [26] 1.24 µM
0.214 µM: [49]

FC(F)(F)c1ccc(/C=N/C23CC4CC(CC(C4)C2)C3)cc1
> 100 µM: [49]
inactive: [1] > 100 µM | [2] > 100 µM | [3] > 100 µM | [4] > 100 µM | [5] > 100 µM | [60] > 100 µM | [8] > 100 µM | [9] > 100 µM | [10] > 100 µM | [61] > 100 µM | [12] > 100 µM | [13] > 100 µM | [14] > 100 µM | [15] > 100 µM | [16] > 100 µM | [62] > 100 µM | [17] > 100 µM | [18] > 100 µM | [20] > 100 µM | [21] > 100 µM | [22] > 100 µM | [23] > 100 µM | [24] > 100 µM | [25] > 100 µM | [26] > 100 µM | [27] > 100 µM | [28] > 100 µM | [29] > 100 µM | [30] > 100 µM | [31] > 100 µM | [32] > 100 µM | [33] > 100 µM | [34] > 100 µM | [35] > 100 µM | [36] > 100 µM | [37] > 100 µM | [40] > 100 µM | [42] > 100 µM | [44] > 100 µM | [46] > 100 µM | [63] > 100 µM | [47] > 100 µM | [48] > 100 µM | [50] > 100 µM | [51] > 100 µM | [52] > 100 µM | [53] > 100 µM | [55] > 100 µM | [56] > 100 µM | [57] > 100 µM | [58] > 100 µM | [59] > 100 µM
